What all share (type): functional, cell-based
For one test, the system named is HeLa. Kind of test: Cytotoxicity against human HeLa cells after 48 hrs by MTT assay.
The test system of another test is MCF7. Kind of test: Cytotoxicity against human MCF7 cells after 48 hrs by MTT assay. To be noted: MCF7, 48 h. A general note: Tetrazolium dyes change colour on reduction, which living cells bring about.
The test system of a further test is HepG2. The test is described as follows: Cytotoxicity against human HepG2 cells after 48 hrs by MTT assay. To be noted: HepG2, 48 h.
The subject of a further test is A549. Kind of test: Cytotoxicity against human A549 cells after 48 hrs by MTT assay. To be noted: A549, 48 h.
The next test has as its system HT-1080. The test is described as follows: Cytotoxicity against human HT1080 cells after 48 hrs by MTT assay. To be noted: HT-1080, 48 h.
The test system of a further test is HCT-116. The test is described as follows: Cytotoxicity against human HCT116 cells after 48 hrs by MTT assay. The note with it: HCT-116, 48 h.

The text below walks through data of ChEMBL document CHEMBL2203140, “Syntheses and structure-activity relationship studies of N-substituted-β-D-glucosaminides as selective cytotoxic agents” (Bioorg Med Chem Lett, 2012).

By IC50 is commonly meant the concentration that gives 50% inhibition.

For `COc1cccc(/C=C/C(=O)N[C@H]2[C@H](O[C@H]3CC[C@@]4(C)C(=CC[C@H]5[C@@H]6C[C@@H]7O[C@]8(CC[C@@H](C)CO8)[C@@H](C)[C@@H]7[C@@]6(C)CC[C@@H]54)C3)O[C@H](CO)[C@@H](O)[C@@H]2O)c1`, the 50% inhibitory concentration (IC50) in the test on HeLa is 27 µM; with MCF7 it was 24.1 µM; with HepG2, over 50 µM; in the test with A549, 26.9 µM; with HT-1080 it was 26.6 µM; with HCT-116, over 50 µM.

Consider `COc1ccc(/C=C/C(=O)N[C@H]2[C@H](O[C@H]3CC[C@@]4(C)C(=CC[C@H]5[C@@H]6C[C@@H]7O[C@]8(CC[C@@H](C)CO8)[C@@H](C)[C@@H]7[C@@]6(C)CC[C@@H]54)C3)O[C@H](CO)[C@@H](O)[C@@H]2O)c(OC)c1`, for which the IC50 turned out to be 22.3 µM with HeLa; 26.7 µM in the test on MCF7; 41.3 µM with HepG2; 27.1 µM in the test with A549; 5.8 µM with HT-1080; 42.9 µM in the test on HCT-116.

On to `C[C@@H]1CC[C@@]2(OC1)O[C@H]1C[C@H]3[C@@H]4CC=C5C[C@@H](O[C@@H]6O[C@H](CO)[C@@H](O)[C@H](O)[C@H]6NC(=S)N/N=C/c6ccccc6)CC[C@]5(C)[C@H]4CC[C@]3(C)[C@H]1[C@@H]2C`, for which the IC50 in the test with HeLa is 36.2 µM; in the test with MCF7, 48.2 µM; in the test with HepG2 it was 29.5 µM; in the test with A549 it was 49.7 µM; in the test on HT-1080 it was over 50 µM; in the test with HCT-116 it was 40 µM.

With `C[C@@H]1CC[C@@]2(OC1)O[C@H]1C[C@H]3[C@@H]4CC=C5C[C@@H](O[C@@H]6O[C@H](CO)[C@@H](O)[C@H](O)[C@H]6NC(=O)/C=C/c6cccc(Br)c6)CC[C@]5(C)[C@H]4CC[C@]3(C)[C@H]1[C@@H]2C`, the IC50 in the test on HeLa, in the test with MCF7, in the test with HepG2, with A549, in the test on HT-1080 and in the test on HCT-116 was over 50 µM in each case.

On to `C[C@@H]1CC[C@@]2(OC1)O[C@H]1C[C@H]3[C@@H]4CC=C5C[C@@H](O[C@@H]6O[C@H](CO)[C@@H](O)[C@H](O)[C@H]6NC(=O)NCc6ccccc6)CC[C@]5(C)[C@H]4CC[C@]3(C)[C@H]1[C@@H]2C`, for which the IC50 in the test with HeLa is 27 µM; in the test with MCF7, 23.9 µM; in the test on HepG2, over 50 µM; in the test with A549, 28.5 µM; with HT-1080, over 50 µM; in the test on HCT-116, over 50 µM.

For `C[C@@H]1CC[C@@]2(OC1)O[C@H]1C[C@H]3[C@@H]4CC=C5C[C@@H](O[C@@H]6O[C@H](CO)[C@@H](O)[C@H](O)[C@H]6NC(=O)/C=C/c6ccccc6[N+](=O)[O-])CC[C@]5(C)[C@H]4CC[C@]3(C)[C@H]1[C@@H]2C`, the half-inhibitory concentration (IC50) in the test with HeLa was over 50 µM; with MCF7, over 50 µM; in the test on HepG2, over 50 µM; in the test with A549, over 50 µM; in the test on HT-1080 it was 36.5 µM; in the test with HCT-116, over 50 µM.
